# Experimental data reported in ChEMBL document CHEMBL1147010, “Aziridine-2,3-dicarboxylate inhibitors targeting the major cysteine protease of Trypanosoma brucei as lead trypanocidal agents” (Bioorg Med Chem Lett, 2006).
# Calls of active or inactive are those of the source. No cut-off for these calls is given here.
# Experiments:
# [1] = molecular target: Rhodesain (Trypanosoma brucei rhodesiense) (UniProt Q95PM0); assay: Inhibition of Trypanosoma brucei rhodesiense rhodesain at 140 uM
# Rhodesain [2] = molecular target: T1, Rhodesain (Trypanosoma brucei rhodesiense, UniProt Q95PM0); assay: Inhibition of Trypanosoma brucei rhodesiense rhodesain in presence of 31.6 uM substrate Cbz-Phe-Arg-AMC
# [3] = test system: Trypanosoma brucei brucei; assay: Trypanocidal activity against Trypanosoma brucei brucei after 48 hrs; assay type: functional, organism-based
# J774 [4] = assay: Selectivity index, IC50 for J774.1/IC50 for Trypanosoma brucei brucei; assay type: functional
# Rhodesain [5] = molecular target: T1, Rhodesain; assay: Inhibition of Trypanosoma brucei rhodesiense rhodesain
# J774 [6] = assay: Cytotoxicity against J774.1 cell line after 48 hrs; assay type: functional, cell-based; settings: Mus musculus, J774, 48 h
# [7] = molecular target: Rhodesain (Trypanosoma brucei rhodesiense) (UniProt Q95PM0); assay: Inhibition of Trypanosoma brucei rhodesiense rhodesain at 200 uM
# J774 [8] = assay: Cytotoxicity against J774.1 cell line after 72 hrs; assay type: functional, cell-based; settings: Mus musculus, J774, 72 h
# T1 sequence (Q95PM0 whole entry): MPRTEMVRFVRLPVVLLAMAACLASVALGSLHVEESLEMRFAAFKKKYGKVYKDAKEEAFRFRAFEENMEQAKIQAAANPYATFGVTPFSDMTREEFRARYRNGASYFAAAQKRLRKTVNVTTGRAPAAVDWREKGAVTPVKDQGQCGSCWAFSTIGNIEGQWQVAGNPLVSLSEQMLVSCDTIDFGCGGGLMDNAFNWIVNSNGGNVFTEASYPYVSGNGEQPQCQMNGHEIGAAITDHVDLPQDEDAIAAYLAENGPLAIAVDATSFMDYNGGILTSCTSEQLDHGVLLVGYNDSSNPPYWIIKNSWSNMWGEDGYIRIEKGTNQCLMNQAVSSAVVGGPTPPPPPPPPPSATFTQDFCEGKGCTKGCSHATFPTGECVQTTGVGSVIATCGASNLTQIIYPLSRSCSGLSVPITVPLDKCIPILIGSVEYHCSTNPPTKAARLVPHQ
# Sequence of Rhodesain (Trypanosoma brucei rhodesiense) (Q95PM0 1-450): as the sequence (Q95PM0 whole entry) above
SMILES,inhibition [1],IC50 [3] [µM],Ratio IC50 (J774 [4]),IC50 (J774 [6]) [µM],further results
CC(C)C[C@H](NC(=O)OC(C)(C)C)C(=O)N1CCC[C@H](C(=O)N2[C@H](C(=O)O)[C@H]2C(=O)O)C1,inactive,,,,
CC(C)C[C@@H](NC(=O)OC(C)(C)C)C(=O)N1CCC[C@@H](C(=O)N2[C@H](C(=O)O)[C@H]2C(=O)O)C1,inactive,,,,
CCOC(=O)[C@@H]1[C@@H](C(=O)OCC)N1C(=O)[C@@H]1CN1C(=O)[C@H](CC(C)C)NC(=O)OC(C)(C)C,,25.7,1.9,50,Ki (Rhodesain [2]): 0.36 µM; Ki (Rhodesain [5]): 0.3 µM
CC(C)C[C@H](NC(=O)OC(C)(C)C)C(=O)N1CCC[C@@H](C(=O)N2[C@H](C(=O)O)[C@H]2C(=O)O)C1,inactive,,,,
N=C(N)c1ccc(OCCCCCOc2ccc(C(=N)N)cc2)cc1.O=S(=O)(O)CCO.O=S(=O)(O)CCO [PENTAMIDINE ISETHIONATE],,0.0029,14345,41.6,inhibition [7]: 27.9%
C[C@H](NC(=O)[C@@H](Cc1ccccc1)NC(=O)OC(C)(C)C)C(=O)N1[C@H](C(=O)OCc2ccccc2)[C@H]1C(=O)OCc1ccccc1,inactive,34.3,1.3,,IC50 (J774 [8]): 43.7 µM
CC(C)(C)OC(=O)NCC(=O)N1CCC[C@H](C(=O)N2[C@H](C(=O)O)[C@H]2C(=O)O)C1,inactive,,,,
CC(C)(C)OC(=O)NCC(=O)N1CCC[C@@H](C(=O)N2[C@H](C(=O)O)[C@H]2C(=O)O)C1,inactive,,,,
Cl.NCCCC(N)(C(=O)O)C(F)F.O (stereo unspecified) [EFLORNITHINE HYDROCHLORIDE],,,>44,> 1000,inhibition [7]: 30.7%; MIC [3]: > 1000 µM
CC(C)C[C@H](NC(=O)OC(C)(C)C)C(=O)N1CCC(C(=O)N2[C@H](C(=O)O)[C@H]2C(=O)O)CC1,inactive,,,,
Cc1ccc(C(=O)Nc2ccc(S(=O)(=O)[O-])c3cc(S(=O)(=O)[O-])cc(S(=O)(=O)[O-])c23)cc1NC(=O)c1cccc(NC(=O)Nc2cccc(C(=O)Nc3cc(C(=O)Nc4ccc(S(=O)(=O)[O-])c5cc(S(=O)(=O)[O-])cc(S(=O)(=O)[O-])c45)ccc3C)c2)c1.[Na+].[Na+].[Na+].[Na+].[Na+].[Na+] [SURAMIN HEXASODIUM],,0.31,>3225,> 1000,inhibition [7]: 31.5%; MIC [3]: 1 µM
Nc1nc(N)nc(Nc2ccc([As]3SCC(CO)S3)cc2)n1 (stereo unspecified) [MELARSOPROL],,0.0026,1653,4.3,inhibition [7]: 94.3%
CC(C)(C)OC(=O)NCC(=O)N1CCC[C@@H]1C(=O)N1[C@H](C(=O)O)[C@H]1C(=O)O,inactive,> 100,,> 100,
CC(C)C[C@@H](NC(=O)OC(C)(C)C)C(=O)N1CCC[C@H](C(=O)N2[C@H](C(=O)O)[C@H]2C(=O)O)C1,inactive,,,,
CC(C)C[C@H](NC(=O)OC(C)(C)C)C(=O)N1CCC[C@H]1C(=O)N1[C@H](C(=O)OCc2ccccc2)[C@H]1C(=O)OCc1ccccc1,,11.1,>11.3,> 125,MIC [3]: 125 µM; Ki (Rhodesain [5]): 2.3 µM
CC(C)C[C@@H](NC(=O)OC(C)(C)C)C(=O)N1CCC[C@@H](C(=O)N2[C@H](C(=O)OCc3ccccc3)[C@H]2C(=O)OCc2ccccc2)C1,,34,>2.9,> 100,Ki (Rhodesain [5]): 0.7 µM
CC(C)C[C@H](NC(=O)OC(C)(C)C)C(=O)N1CCC[C@H]1C(=O)N1[C@H](C(=O)O)[C@H]1C(=O)O,inactive,,,,
